This is an account of results in patent publication US6638967B2, “Thiophene of furan pyrrolidine compounds” (Ortho-McNeil Phamraceutical, Inc., priority 2000, dated 2003).

The target of the assay is T1, human histamine H3 receptor (Homo sapiens, UniProt Q9Y5N1).
T1 construct: One microgram of supercoiled H3 receptor cDNA was added to the cells and mixed; expressed in transfected cells
The experiment in a line: [3H]-N-methylhistamine binding. The following applies: membranes of histamine H3 receptor-expressing SK-N-MC cells, 0.8 nM [3H]-N-methylhistamine, 45 min at 25° C. Here is the method:
Thus in the present invention receptor binding was determined using the human histamine H3 receptor (See Lovenberg et al Mol. Pharmacol. 1999, 1107). Screening using the human receptor is particularly important for the identification of new therapies for the treatment of human disease. Conventional binding assays for example are determined using rat synaptosomes (Garbarg et al J. Pharmacol. Exp. Ther. 1992, 263, 304), rat cortical membranes (West et al Mol. Pharmacol. 1990, 610), and guinea pig brain (Korte et al Biochem. Biophys. Res. Commun. 1990, 978). Only limited studies have been performed previously using human tissue but these allude to significant differences in the pharmacology of rodent and primate receptors (West et al Eur. J. Pharmacol. 1999, 233).
Transfection of Cells With Human Histamine Receptor
A 10 cm tissue culture dish with a confluent monolayer of SK-N-MC cells was split two days prior to transfection. Using sterile technique the media was removed and the cells were detached from the dish by the addition of trypsin. One fifth of the cells were then placed onto a new 10 cm dish. Cells were grown in a 37° C. incubator with 5% CO2 in Minimal Essential Media Eagle with 10% Fetal Bovine Serum. After two days cells were approximately 80% confluent. These were removed from the dish with trypsin and pelleted in a clinical centrifuge. The pellet was then re-suspended in 400 μL complete media and transferred to an electroporation cuvette with a 0.4 cm gap between the electrodes (Bio-Rad #165-2088). One microgram of supercoiled H3 receptor cDNA was added to the cells and mixed. The voltage for the electroporation was set at 0.25 kV; the capacitance was set at 960 μF. After electroporation the cells were diluted into 10 mL complete media and plated onto four 10 cm dishes. Because of the variability in the efficiency of electroporation, four different concentrations of cells were plated. The ratios used were; 1:20, 1:10, 1:5, with the remainder of the cells being added to the fourth dish. The cells were allowed to recover for 24 hours before adding the selection media (complete media with 600 μg/mL G418). After 10 days dishes were analyzed for surviving colonies of cells. Dishes with well isolated colonies were used. Cells from individual colonies were isolated and tested. SK-N-MC cells were used because they give efficient coupling for inhibition of adenylate cyclase. The clones that gave the most robust inhibition of adenylate cyclase in response to histamine were used for further study.
[^3H]-N-methylhistamine binding
Cell pellets from histamine H3 receptor-expressing SK-N-MC cells were homogenized in 20 mM TrisHCI/0.5 mM EDTA. Supernatants from a 800 g spin were collected, recentrifuged at 30,000 g for 30 minutes. Pellets were re-homogenized in 50 mM Tris/5 mM EDTA (pH 7.4). Membranes were incubated with 0.8 nM [^3H]-N-methylhistamine plus/minus test compounds for 45 min at 25° C. and harvested by rapid filtration over GF/C glass fiber filters (pretreated with 0.3 % polyethylenimine) followed by four washes with ice cold buffer. Filters were dried, added to 4 mL scintillation cocktail and then counted on a liquid scintillation counter. Non-specific binding was defined with 10 μM histamine. The pKi values were calculated based on a Kd of 800 pM and a ligand concentration ([L]) of 800 pM according to the formula: […]

Structures can show the parent of a compound that is named as a salt.

T1 sequence (Q9Y5N1 whole entry): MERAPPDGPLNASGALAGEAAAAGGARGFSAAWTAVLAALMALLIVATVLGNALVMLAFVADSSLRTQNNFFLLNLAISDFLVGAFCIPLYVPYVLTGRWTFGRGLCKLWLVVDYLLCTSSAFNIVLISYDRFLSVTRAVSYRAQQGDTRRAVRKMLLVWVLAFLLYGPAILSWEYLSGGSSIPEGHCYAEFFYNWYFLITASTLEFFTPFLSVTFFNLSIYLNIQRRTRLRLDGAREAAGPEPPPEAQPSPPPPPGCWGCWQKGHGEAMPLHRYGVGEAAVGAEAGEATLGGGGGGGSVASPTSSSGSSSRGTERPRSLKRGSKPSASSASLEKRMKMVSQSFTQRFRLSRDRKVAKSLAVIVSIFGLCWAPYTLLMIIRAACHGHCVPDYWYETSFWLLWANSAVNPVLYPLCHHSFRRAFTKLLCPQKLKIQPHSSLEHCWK

`c1cn(Cc2ccc(Cc3ccc(Cn4ccnc4)cc3)cc2)cn1` [Example 11] gave a Ki of 0.15 µM. The molecule `c1cc(Oc2ccc(CN3CCCCC3)cc2)ccc1CN1CCCCC1` [Example 7] returned a Ki of 0.00066 µM. As to `c1cc(-c2ccc(CN3CCCC3)s2)sc1CN1CCCC1` [Example 3], the Ki worked out at 0.0014 µM.

For the molecule `c1cc(-c2ccc(CN3CCCC3)s2)ccc1CN1CCCC1` [Example 1], the affinity, expressed as Ki, was 0.009 µM.

Molecule `c1cc(Oc2ccc(CN3CCCC3)cc2)ccc1CN1CCCC1` [Example 6] yielded a Ki of 0.0005 µM. Compared with the last molecule, the Ki is about 18-fold lower.

As to `c1cn(Cc2ccc(Oc3ccc(Cn4ccnc4)cc3)cc2)cn1` [Example 10], the Ki was 0.151 µM. Next, `C/N=C(\NC)SCc1ccc(Oc2ccc(CS/C(=N/C)NC)cc2)cc1` [Example 12]: 0.085 µM; `c1cc(CCN2CCCC2)ccc1CCc1ccc(CCN2CCCC2)cc1` [Example 29, 1-(2-{4-[2-(1-Phenethyl-pyrrolidine)-ethyl]-phenyl}-ethyl)-pyrrolidine]: 0.0266 µM; `O=[N+]([O-])c1cc(CN2CCCCC2)ccc1Sc1ccc(N2CCCCC2)cc1` [Example 26, 1-[4-(4-Piperidine-phenylsulfanyl)-3-nitro-benzyl]-piperidine]: 0.756 µM. With `c1cc(N(CCCN2CCCCC2)c2ccc(CN3CCCC3)cc2)ccc1CN1CCCC1` [Example 24, (3Piperidin-1-yl-propyl)-bis-(4pyrrolidin1-ylmethyl-phenyl)-amine] the figure was 0.0035 µM; with `c1cc(CN2CCCC2)n(Cc2ccc(CN3CCCC3)cc2)c1` [Example 31], 0.0032 µM; with `c1cc(-c2ccc(CN3CCCC3)o2)ccc1CN1CCCC1` [Example 2], 0.00041 µM. With `CN(C)CCOc1ccc(C(=O)c2ccc(OCCN(C)C)cc2)cc1` [Example 34, Bis-[4-(2-dimethylamino-ethoxy)-phenyl]-methanone] the figure was 0.126 µM. For the molecule `c1cc(Oc2ccc(CNC3=NCCN3)cc2)ccc1CNC1=NCCN1` [Example 17, 2-[4-(4-(2Imidazolin)-2-ylaminomethyl-phenoxy-)-benzyl-amino]-2-imidazolidone], affinity was put at a Ki of 0.344 µM.

`Cn1ccnc1SCc1ccc(Oc2ccc(CSc3nccn3C)cc2)cc1` [Example 16, 2-[4-(4-(1Methyl-imidazo)-2-ylthiomethyl-phenoxy-)-benzyl-thio]-1-methyl-imidazole] gave a Ki of 0.792 µM. This Ki is about 2.3-fold higher than that of the molecule before.

`O=S(=O)(c1ccc(CN2CCCC2)cc1)c1ccc(CN2CCCC2)cc1` [Example 8] showed a Ki of 0.0025 µM. Next, `c1cc(Oc2ccc(CSC3=NCCS3)cc2)ccc1CSC1=NCCS1` [Example 15, 2-[4-(4-(2Thiazolin)-2-ylthiomethyl-phenoxy-)-benzyl-thio]-2-thiazoline]: 2.57 µM; `CN(C)CCN(c1ccc(CN2CCCC2)cc1)c1ccc(CN2CCCC2)cc1` [Example 25]: 0.453 µM. In turn, `CN(C)CCCSc1ccc(C(=O)c2ccc(SCCCN(C)C)cc2)cc1` [Example 32, Bis-[4-(3-dimethylamino-propylsulfanyl)-phenyl]methanone dihydrochloride] had a Ki of 0.014 µM. This Ki is about 32-fold lower than that of the molecule before.

`c1cc(CN2CCCC2)c(-c2ccc(CN3CCCC3)cc2)s1` [Example 4, 1-[(2-(4-Pyrrolidin-1-ylmethyl-phenyl)-thiophen)-3-ylmethyl]-pyrrolidine] gave a Ki of 0.009 µM. This Ki is about 1.6-fold lower than that of the molecule before. Next, `CNC(=N)SCc1ccc(Oc2ccc(CSC(=N)NC)cc2)cc1` [Example 13]: 0.629 µM; `O=Cc1ccc(-c2ccc(CN3CCCC3)cc2)cc1` [Example 27, 4′-Pyrrolidin-1-ylmethyl-biphenyl-4-carbaldehyde]: 0.0087 µM. Take `c1ccn(Cc2ccc(COc3ccc(CN4CCCC4)cc3)cc2)c1` [Example 20, 1-[4-(4Pyrrolidin1-ylmethyl-phenoxymethyl)-benzyl]-1H-pyrrole]: the Ki came out at 0.016 µM. Against the preceding molecule, the Ki is about 1.8-fold higher. With `c1cc(Cn2ccc(CN3CCCC3)c2)ccc1CN1CCCC1` [Example 30] the figure was 0.0242 µM; with `c1ccc(CN(c2ccc(CN3CCCC3)cc2)c2ccc(CN3CCCC3)cc2)cc1` [Example 23, Benzyl-bis-(4pyrrolidin1-ylmethyl-phenyl)-amine], 0.015 µM. Next, `CN(C)CCCOc1ccc(C(=O)c2ccc(O)cc2)cc1` [Example 33, [4-(3-Dimethylamino-propoxy)-phenyl]-(4-hydroxy-phenyl)-methanone]: 0.129 µM; `ON=Cc1ccc(-c2ccc(CN3CCCC3)cc2)cc1` [Example 28, 4′-Pyrrolidin-1-ylmethyl-biphenyl-4-carbaldehyde oxime]: 0.0065 µM. The molecule `c1cc(-c2ccc(CN3CCCC3)cc2)c(CN2CCCC2)s1` [Example 5, 1-[(3-(4-Pyrrolidin-1-ylmethyl-phenyl)-thiophen)-2-ylmethyl]-pyrrolidine] returned a Ki of 0.063 µM. `c1cc(CN2CCCC2)ccc1Cc1ccc(CN2CCCC2)cc1` [Example 9]: the Ki is 0.002 µM. This Ki lies about 32-fold lower than the previous one.

For orientation: Ki means a dissociation constant, usually derived from enzyme kinetics or from competition with a known ligand. The low end stands for tighter binding, the high end for weaker binding.
